Values after ≈ are worked out from the molar mass of the structure shown.

The source of these data is patent US20250101032A1, “EXATECAN DERIVATIVES AND ANTIBODY-DRUG CONJUGATES THEREOF” (priority 2021, published 2025).

One data set has as its system SKOV3. The experiment in a line: In vitro cytotoxicity assay (CellTiter-Glo), SKOV3. The class given is cell-based. The conditions noted are these: Homo sapiens, SK-OV-3, 144 h, read-out: Cytotoxicity IC50. The method, then:
(§1) Lyophilized compounds were dissolved in 100% dry DMSO, aliquots frozen and stored at −80° C. […] Shimadzu 3.0 mm×30 mm XR ODS 2.2 μm column was run at 50° C., 1.5 mL/min. Solvent A: 0.1% Formic acid in water, Solvent B: 0.08% Formic acid in methanol-Gradient: 5%-100% B in 3.0 min, 100% solvent B for 0.3 min.
(§2) Cells were plated in 96-well white flat-bottomed plates (Corning) at 2.0×10^3 cells per well in 100 μL culture medium. After incubation for 24 hours, test compounds were added at a range of concentrations as ten point serial dilution as duplicates or triplicates. Following further incubation for 6 days 37° C., 5% CO2, cell viability was assessed with the use of a CellTiter-Glo Luminescent Cell Viability Assay (Promega). Luminescence was measured using the GloMax instrument (Promega). […] For a subset of payloads, each treatment was independently repeated two to eight times, and IC50 values were averaged. […] Standard deviation (stdev) is shown as (N/A) for treatment performed once.
On the technique in general: In ATP-based viability assays light output follows the ATP content of the culture.

The next data set has as its system SKBR3. The experiment in a line: In vitro cytotoxicity assay (CellTiter-Glo), SKBR3. The class given is cell-based, Human. The conditions noted are these: Homo sapiens, SK-BR-3, 144 h, read-out: Cytotoxicity IC50.
The test system of the next data set is FaDu. Kind of data set: In vitro cytotoxicity assay (CellTiter-Glo), FaDu. The conditions noted are these: Homo sapiens, FaDu, 144 h, read-out: Cytotoxicity IC50. The class given is cell-based, Human.
The test system of the next data set is NCI-N87. The experiment in a line: In vitro cytotoxicity assay (CellTiter-Glo), NCI-N87. The following applies: Homo sapiens, NCI-N87, 144 h, read-out: Cytotoxicity IC50. The class given is cell-based, Human. The method, boiled down:
(§3)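 Plate 2.0×10^3 cells per well in RPMI-1640 plus 10% heat-inactivated FBS. After 24 hours, add test compound as a ten-point serial dilution. Incubate 6 days at 37° C, 5% CO2, then quantify viability with CellTiter-Glo.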

The subject of a further data set is BXPC3. The experiment in a line: In vitro cytotoxicity assay (CellTiter-Glo), BXPC3. The class given is cell-based. The following applies: Homo sapiens, BXPC-3, 144 h, read-out: Cytotoxicity IC50. The method, then:
as §1, §2

A further data set is described as follows: physchem. The following applies: 25 °C, pH 7.4, aqueous buffer, kinetic from dmso stock.
Another data set relates to HT29. The experiment in a line: In vitro cytotoxicity assay (CellTiter-Glo), HT29. The class given is cell-based, Human. The following applies: Homo sapiens, HT-29, 144 h, read-out: Cytotoxicity IC50. The method in brief: as §3
A further data set concerns NCI-H292. Kind of data set: In vitro cytotoxicity assay (CellTiter-Glo), NCI-H292. The class given is cell-based, Human. The conditions noted are these: Homo sapiens, NCI-H292, 144 h, read-out: Cytotoxicity IC50. The method in brief: as §3
A further data set concerns MCF7. The experiment in a line: In vitro cytotoxicity assay (CellTiter-Glo), MCF7. The class given is cell-based, Human. The conditions noted are these: Homo sapiens, MCF7, 144 h, read-out: Cytotoxicity IC50. The method in brief: as §3

Take `CC[C@@]1(O)C(=O)OCc2c1cc1n(c2=O)Cc2c-1nc1cc(F)c(C)c3c1c2[C@@H](NC(=O)OCCO)CC3` [Compound 22]: the IC50 in the data set on SKOV3 was 1.9 nM; in the data set on SKBR3 it was 1.2 nM; with FaDu, 0.7 nM; in the data set on NCI-N87, 2.6 nM; in the data set with BXPC3, 0.7 nM; in the data set on HT29 it was 5.7 nM. Besides, the results for the IC50 in the data set on NCI-H292 and in the data set with MCF7 were 2.7 nM and 2.3 nM, respectively. In “physchem”, this molecule displayed a solubility at 30 min of 23 µM (≈ 12 µg/mL).

Broadly, the IC50 is the concentration that inhibits the measured activity by half. The solubility is how much of the substance goes into solution per volume. The low end stands for a poorly soluble substance, the high end for a readily soluble substance.
